One molecule from patent US12564553B2, “Suspension containing heterocyclidene acetamide derivative” (SENJU PHARMACEUTICAL CO., LTD., priority 2021, dated 2026) can be followed below.

The series in a line: Stability of Compound (1) in nonionic surfactant solution (content retention rate, liquid chromatography). It is filed as physicochemical. The following applies: aqueous solution in glass ampoule stored at 25° C. for 1 month (1M). On the procedure: As used herein, the term “stability” refers to the degree to which the content of (E)-2-(7-trifluoromethylchroman-4-ylidene)-N-(7-hydroxy-5,6,7,8-tetrahydronaphthalen-1-yl)acetamide, or a pharmaceutically acceptable salt or solvate thereof, dissolved and/or suspended in an aqueous suspension is maintained without being altered by decomposition or the like after storage for a certain period of time. In addition, as used herein, the “stability” is evaluated by the content maintenance ratio, which is the ratio of the content of (E)-2-(7-trifluoromethylchroman-4-ylidene)-N-(7-hydroxy-5,6,7,8-tetrahydronaphthalen-1-yl)acetamide, or a pharmaceutically acceptable salt or solvate thereof, in the aqueous suspension agent stored for a certain period after preparation to the content of (E)-2-(7-trifluoromethylchroman-4-ylidene)-N-(7-hydroxy-5,6,7,8-tetrahydronaphthalen-1-yl)acetamide, or a pharmaceutically acceptable salt or solvate thereof, in the aqueous suspension agent immediately after preparation. Typically, this evaluation is determined by evaluating the content retention rate of (E)-2-(7-trifluoromethylchroman-4-ylidene)-N-(7-hydroxy-5,6,7,8-tetrahydronaphthalen-1-yl)acetamide, or a pharmaceutically acceptable salt or solvate thereof, dissolved in the aqueous suspension agent. […]

With `O=C(/C=C1\CCOc2cc(C(F)(F)F)ccc21)Nc1cccc2c1C[C@H](O)CC2` [Compound (1), (E)-2-(7-trifluoromethylchroman-4-ylidene)-N-((7R)-7-hydroxy-5,6,7,8-tetrahydronaphthalen-1-yl)acetamide], the “content retention rate (to display ratio %)” value was 100%.
